This assay relates to amyloid deposition in AD brain (homogenates of frontal, temporal, parietal cortex and cerebellum). Briefly: [^3H]PIB binding to homogenates of postmortem brain. More on the design: species or system human. The following applies: AD n=5, control n=4; 1 nM [^3H]PIB. How it is done: To determine whether benzothiazole amyloid imaging probes might be sensitive to changes in brain amyloid deposition caused by an anti-amyloid therapy in general, testing by immunization with AN-1792 was performed. Studies were performed for the binding of {N-methyl-^3H}2-[4′-(methylamino)phenyl]6-hydroxy-benzothiazole ([^3H]PIB) to homogenates of frontal cortex and cerebellum obtained from control subjects (n=4), AD patients (n=5) and from a single AN-1792-treated AD case (in duplicate). See, e.g., Example 9.
This [^11C]PIB retention follows the known topography of amyloid deposition in AD brain (Klunk et al. 2004, Ann. Neurol., 55 (3):306-19). To determine whether the present benzothiazole amyloid imaging probes are sensitive to changes in brain amyloid deposition caused by an anti-amyloid therapy in general, studies were performed for the binding of {N-methyl-^3H}2-[4′-(methylamino)phenyl]6-hydroxy-benzothiazole ([^3H]PIB) to homogenates of postmortem brain from […] AN-1792-treated AD cases. […] An aliquot was submitted for Aβ ELISA and another aliquot was assayed for [^3H]PIB binding after dilution with phosphate-buffered saline (100 mg tissue, incubated with 1 nM [^3H]PIB, filtered, washed and counted to determine bound [^3H]PIB).

Structures are written as SMILES.

The values below come from patent publication US8580229B2, “Amyloid imaging as a surrogate marker for efficacy of anti-amyloid therapies” (University of Pittsburgh—of the Commonwealth System of …, priority 2004, dated 2013).

As to `[3H]C([3H])([3H])Nc1ccc(-c2nc3ccc(O)cc3s2)cc1` [[^3H]PIB, {N-methyl-^3H}2-[4′-(methylamino)phenyl]6-hydroxy-benzothiazole], the “[^3H]PIB binding to frontal cortex homogenates of AD patients compared to control brain” value is “elevated [^3H]PIB binding compared to control brain”.
